Legend:
ABL1(E274K) = biological target: T1, ABL1(E274K) (Homo sapiens, UniProt P00519, E255K); test: Binding constant (Kd) measurement, phage-displayed kinase competition binding assay: ABL1(E274K); conditions: competition with immobilized ATP site ligand
T1 construct: made in house; host or cells: T7 bacteriophage display
Source text: (§1) Binding Constant (Kd) Measurements for Small-Molecule-Kinase Interactions
(§2) The term “ND” represents non-determined values.

ABL1(DKIN) = biological target: T2, ABL1(DKIN) (Homo sapiens, UniProt P00519); test: Binding constant (Kd) measurement, phage-displayed kinase competition binding assay: ABL1(DKIN); conditions: competition with immobilized ATP site ligand
T2 construct: column label 'AB L1(DKIN)'; fused on or other part: Fused to a T7 bacteriophage particle (phage display)
T2 sequence (P00519 242-493 limits assumed): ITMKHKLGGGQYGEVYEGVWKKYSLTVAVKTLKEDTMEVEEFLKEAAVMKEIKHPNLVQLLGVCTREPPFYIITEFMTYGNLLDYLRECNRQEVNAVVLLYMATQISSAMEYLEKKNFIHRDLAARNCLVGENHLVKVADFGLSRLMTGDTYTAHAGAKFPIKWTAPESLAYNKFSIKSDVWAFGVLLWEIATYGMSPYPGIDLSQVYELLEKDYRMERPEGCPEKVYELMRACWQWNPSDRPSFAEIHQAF
Source text: as §1, §2

T1 sequence (P00519 1-1149 isoform P00519-2 E274K): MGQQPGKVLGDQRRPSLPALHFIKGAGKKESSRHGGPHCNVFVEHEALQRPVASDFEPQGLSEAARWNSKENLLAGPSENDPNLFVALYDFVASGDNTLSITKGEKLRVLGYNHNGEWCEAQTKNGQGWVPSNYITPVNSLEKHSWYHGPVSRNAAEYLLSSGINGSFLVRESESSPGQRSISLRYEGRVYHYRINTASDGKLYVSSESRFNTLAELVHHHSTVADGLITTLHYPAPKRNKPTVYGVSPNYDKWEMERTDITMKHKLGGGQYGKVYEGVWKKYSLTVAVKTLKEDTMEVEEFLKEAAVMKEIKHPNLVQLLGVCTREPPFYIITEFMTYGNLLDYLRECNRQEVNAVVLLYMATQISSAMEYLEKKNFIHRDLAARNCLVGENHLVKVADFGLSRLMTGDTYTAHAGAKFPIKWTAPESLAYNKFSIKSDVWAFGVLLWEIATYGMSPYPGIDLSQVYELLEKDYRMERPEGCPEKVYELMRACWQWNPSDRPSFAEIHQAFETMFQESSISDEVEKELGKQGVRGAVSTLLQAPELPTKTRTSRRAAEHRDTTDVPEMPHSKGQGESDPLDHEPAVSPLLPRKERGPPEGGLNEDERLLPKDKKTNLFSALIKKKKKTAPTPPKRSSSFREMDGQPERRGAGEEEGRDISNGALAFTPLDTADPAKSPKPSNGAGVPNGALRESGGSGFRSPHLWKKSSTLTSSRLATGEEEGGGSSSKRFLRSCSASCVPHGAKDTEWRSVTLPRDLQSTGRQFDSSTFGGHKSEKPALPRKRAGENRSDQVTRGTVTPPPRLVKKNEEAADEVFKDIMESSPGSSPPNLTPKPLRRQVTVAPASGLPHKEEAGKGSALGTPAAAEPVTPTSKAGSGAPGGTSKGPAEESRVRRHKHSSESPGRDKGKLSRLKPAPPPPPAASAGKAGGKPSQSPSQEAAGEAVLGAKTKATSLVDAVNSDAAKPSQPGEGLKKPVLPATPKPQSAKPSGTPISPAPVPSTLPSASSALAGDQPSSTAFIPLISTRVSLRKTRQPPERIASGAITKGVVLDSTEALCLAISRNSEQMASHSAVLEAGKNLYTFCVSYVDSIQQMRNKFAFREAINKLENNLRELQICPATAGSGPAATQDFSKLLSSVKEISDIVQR

SMILES	Kd (ABL1(E274K)) [µM]	Kd (ABL1(DKIN)) [µM]
O=C(Cc1ccc(OCc2ccccc2)cc1)Nc1nc2cc(Cl)ccc2o1 [Compound B15]	> 10	–
O=C(Cc1ccc(F)cc1)Nc1cc(C2CC2)nn1-c1ccccc1 [Compound E7]	–	> 10
